One test has as its system Rattus norvegicus. Kind of test: Effective dose was measured using in vivo rat hot plate test after intrathecal injection. It is filed as functional. Conditions: central.
In test [1] the test system is Mus musculus. The experiment in a line: Concentration inhibiting electrically induced contraction of mouse vas deferens(MVD) at an ED50 of 0.15(ug/kg). It counts as functional, organism-based.
Test [2] in a line: Selectivity Ratio of IC50 of MVD to IC50 of GPI. It is filed as functional.
The species named for test [3] is Cavia porcellus. Kind of test: Potency to inhibit electrically induced contraction of guinea pig ileum(GPI) relative to [Leu5]-enkephalin. It counts as functional.
Test [4] has as its system Cavia porcellus. The experiment in a line: Concentration inhibiting electrically induced contraction of guinea pig ileum(GPI) at an ED50 of 0.15(ug/kg). It is filed as functional, organism-based.
The species named for test [5] is Mus musculus. Kind of test: Potency to inhibit electrically induced contraction of mouse vas deferens(MVD) relative to [Leu5]-enkephalin. It is filed as functional.
For test [6], the species on record is Cavia porcellus. Kind of test: Concentration inhibiting electrically induced contraction of guinea pig ileum(GPI). It is filed as functional, organism-based.

For the molecule `CC(C)C[C@H](NC(=O)[C@H](Cc1ccccc1)NC(=O)CNC(=O)CNC(=O)[C@@H](N)Cc1ccc(O)cc1)C(=O)O` [ENKEPHALIN], the ED50 (as a rule, the dose at which the effect has come halfway, by size or by number of responders) in the test with Rattus norvegicus is greater than 100 µg/kg.
Take `NC(=O)[C@@H]1CSC[C@@H](NC(=O)[C@@H](N)Cc2ccc(O)cc2)C(=O)NCC(=O)N[C@@H](Cc2ccccc2)C(=O)N1`: the IC50 (as a rule, the concentration that gives 50% inhibition) in the test with Mus musculus [1] turned out to be 0.54 nM; with Cavia porcellus [4], 0.62 nM. Also, the Ratio in test [2] was 0.882. Moreover, the Relative potency was determined as 396 in the test listed under Cavia porcellus [3] and 21 in the test filed under Mus musculus [5]. In the test with Rattus norvegicus, the ED50 worked out at 0.15 µg/kg.
`NC(=O)[C@@H]1CSSC[C@@H](NC(=O)[C@@H](N)Cc2ccc(O)cc2)C(=O)NCC(=O)N[C@@H](Cc2ccccc2)C(=O)N1` [listing 1 of 2 here]: in the test listed under Cavia porcellus [6], 1.51 nM corresponded to half-maximal inhibition (IC50).
`NC(=O)[C@H]1CSSC[C@H](NC(=O)[C@@H](N)Cc2ccc(O)cc2)C(=O)NCC(=O)N[C@H](Cc2ccccc2)C(=O)N1`: in test [2], the Ratio is 0.503.
In the case of `NC(=O)[C@@H]1CSSC[C@@H](NC(=O)[C@@H](N)Cc2ccc(O)cc2)C(=O)NCC(=O)N[C@@H](Cc2ccccc2)C(=O)N1` [listing 2 of 2 here], the Relative potency in the test listed under Cavia porcellus [3] was found to be 132; in the test listed under Mus musculus [5], 17.
For `CN1CC[C@]23c4c5ccc(O)c4O[C@H]2[C@@H](O)C=C[C@H]3[C@H]1C5` [MORPHINE], the ED50 in the test on Rattus norvegicus was found to be 5.6 µg/kg.

The record behind these values is ChEMBL document CHEMBL1126282, “Synthesis and conformational properties of the lanthionine-bridged opioid peptide [D-AlaL2,AlaL5]enkephalin as determined by NMR and computer simulations” (J Med Chem, 1992).
